Assay results as given in ChEMBL document CHEMBL1201862, “PubChem BioAssay data set” (2004).
Active and inactive are the calls of the source.

Legend:
[1] = viability of uninfected HEp-2 cells – cell-based, HTS, cytotoxicity control for RSV inhibitor project, dose response (AID 2410); assay type: functional; settings: human respiratory syncytial virus
[2] = target: T1, Small ubiquitin-related modifier 1 (Homo sapiens, UniProt P63165); experiment: SUMO1 protein-protein binding blockers, potency – biochemical, FRET, dose response (AID 624383); assay type: functional; settings: read-out: IC50_Mean
T1 sequence (P63165 whole entry, the tested form may be a part): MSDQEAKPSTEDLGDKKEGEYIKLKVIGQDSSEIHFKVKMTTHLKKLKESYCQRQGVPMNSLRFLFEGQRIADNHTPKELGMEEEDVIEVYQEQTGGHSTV

[3] = target: T2, Carboxy-terminal domain RNA polymerase II polypeptide A small phosphatase 1 (Homo sapiens, UniProt Q9GZU7); experiment: CTDSP1 inhibitors, concentration-response, biochemical, absorbance readout, ultra-high-throughput screen actives (AID 540297); assay type: functional
T2 sequence (Q9GZU7 whole entry): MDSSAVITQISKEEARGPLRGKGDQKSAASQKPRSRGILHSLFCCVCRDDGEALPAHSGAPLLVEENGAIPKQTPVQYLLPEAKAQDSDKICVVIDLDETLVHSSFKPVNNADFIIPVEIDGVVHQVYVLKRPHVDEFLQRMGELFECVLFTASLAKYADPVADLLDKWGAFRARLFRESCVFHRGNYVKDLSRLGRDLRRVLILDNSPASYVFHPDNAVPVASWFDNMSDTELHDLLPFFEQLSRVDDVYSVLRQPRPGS

[4] = target: Tyrosine-protein phosphatase non-receptor type 5 (Homo sapiens, UniProt P54829); experiment: PTPN5 enzyme inhibition – biochemical, fluorescence intensity, uHTS hits, confirmation (AID 602372); assay type: functional; settings: read-out: IC50_Mean
Sequence of Tyrosine-protein phosphatase non-receptor type 5 (P54829 whole entry): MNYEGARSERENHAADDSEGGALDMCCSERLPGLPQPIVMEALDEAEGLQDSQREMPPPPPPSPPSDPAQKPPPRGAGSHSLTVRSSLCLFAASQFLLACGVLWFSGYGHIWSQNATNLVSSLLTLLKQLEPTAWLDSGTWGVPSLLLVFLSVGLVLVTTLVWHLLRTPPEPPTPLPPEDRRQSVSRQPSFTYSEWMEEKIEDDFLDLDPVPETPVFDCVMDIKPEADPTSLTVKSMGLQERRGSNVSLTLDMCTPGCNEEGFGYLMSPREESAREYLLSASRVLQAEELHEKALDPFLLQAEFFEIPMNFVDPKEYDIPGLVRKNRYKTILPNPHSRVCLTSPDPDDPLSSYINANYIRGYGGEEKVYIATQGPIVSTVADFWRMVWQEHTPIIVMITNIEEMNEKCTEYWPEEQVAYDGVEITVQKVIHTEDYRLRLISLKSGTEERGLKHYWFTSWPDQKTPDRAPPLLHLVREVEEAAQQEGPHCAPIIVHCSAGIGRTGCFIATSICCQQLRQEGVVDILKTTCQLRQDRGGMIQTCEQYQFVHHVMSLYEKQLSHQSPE

[5] = target: T1, Small ubiquitin-related modifier 1; experiment: SUMO1 protein interaction blockers, potency – biochemical, fluorescence polarization, uHTS hits, dose response (AID 624382); assay type: functional; settings: read-out: IC50_Mean
[6] = target: Dual specificity protein phosphatase 3 (Homo sapiens, UniProt P51452); experiment: VHR phosphatase inhibition, dose response, selectivity assay for STEP inhibitor project, biochemical (AID 602374); assay type: functional; settings: read-out: IC50_Mean
Sequence of Dual specificity protein phosphatase 3 (P51452 whole entry): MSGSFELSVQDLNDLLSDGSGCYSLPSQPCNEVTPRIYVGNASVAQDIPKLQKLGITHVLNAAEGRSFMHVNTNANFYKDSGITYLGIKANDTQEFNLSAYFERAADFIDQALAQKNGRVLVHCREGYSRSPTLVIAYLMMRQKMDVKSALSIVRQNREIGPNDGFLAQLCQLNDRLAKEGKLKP

[7] = target: Tyrosine-protein phosphatase non-receptor type 11 (Homo sapiens, UniProt Q06124); experiment: PTPN11 enzyme inhibitors – biochemical, selectivity assay for STEP inhibitor project, dose response (AID 602367); assay type: functional; settings: read-out: IC50_Mean
Sequence of Tyrosine-protein phosphatase non-receptor type 11 (Q06124 whole entry): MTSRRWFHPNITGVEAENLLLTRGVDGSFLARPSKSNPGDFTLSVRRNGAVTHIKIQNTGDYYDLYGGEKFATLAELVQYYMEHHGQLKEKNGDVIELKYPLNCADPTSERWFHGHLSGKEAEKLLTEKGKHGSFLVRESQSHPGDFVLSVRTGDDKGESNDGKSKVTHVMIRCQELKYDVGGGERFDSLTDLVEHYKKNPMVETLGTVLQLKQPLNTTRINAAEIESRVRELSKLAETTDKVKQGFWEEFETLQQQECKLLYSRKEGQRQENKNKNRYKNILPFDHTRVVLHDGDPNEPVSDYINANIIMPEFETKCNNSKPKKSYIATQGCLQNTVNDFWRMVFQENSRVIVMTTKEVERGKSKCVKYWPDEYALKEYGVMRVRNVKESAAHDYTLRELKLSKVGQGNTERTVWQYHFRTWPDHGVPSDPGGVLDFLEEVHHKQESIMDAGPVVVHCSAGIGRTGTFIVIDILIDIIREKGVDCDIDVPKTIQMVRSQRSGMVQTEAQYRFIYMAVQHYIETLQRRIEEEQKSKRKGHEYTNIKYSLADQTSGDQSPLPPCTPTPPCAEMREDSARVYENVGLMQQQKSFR

[8] = target: T3, Interleukin-8 (Homo sapiens, UniProt P10145); experiment: Dose Response confirmation of uHTS small molecule hits for cystic fibrosis induced NFkb Inhibitors in a PAF-induced IL8 counterscreen.; assay type: functional; settings: read-out: IC50_Mean
T3 sequence (P10145 whole entry): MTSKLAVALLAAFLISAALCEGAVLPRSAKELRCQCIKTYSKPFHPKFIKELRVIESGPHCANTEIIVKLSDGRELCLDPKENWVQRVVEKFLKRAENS

[9] = target: Paired box protein Pax-8 (Homo sapiens, UniProt Q06710); experiment: PAX8 transcriptional activity inhibition in RMG-I – RMG-I cells, luciferase, cherry-pick, dose response (AID 687027); assay type: functional, cell-based;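 note: luciferase reporter driven by Pax8 target thyroperoxidase promoter measured by SteadyGlo luminescence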
Sequence of Paired box protein Pax-8 (Q06710 whole entry): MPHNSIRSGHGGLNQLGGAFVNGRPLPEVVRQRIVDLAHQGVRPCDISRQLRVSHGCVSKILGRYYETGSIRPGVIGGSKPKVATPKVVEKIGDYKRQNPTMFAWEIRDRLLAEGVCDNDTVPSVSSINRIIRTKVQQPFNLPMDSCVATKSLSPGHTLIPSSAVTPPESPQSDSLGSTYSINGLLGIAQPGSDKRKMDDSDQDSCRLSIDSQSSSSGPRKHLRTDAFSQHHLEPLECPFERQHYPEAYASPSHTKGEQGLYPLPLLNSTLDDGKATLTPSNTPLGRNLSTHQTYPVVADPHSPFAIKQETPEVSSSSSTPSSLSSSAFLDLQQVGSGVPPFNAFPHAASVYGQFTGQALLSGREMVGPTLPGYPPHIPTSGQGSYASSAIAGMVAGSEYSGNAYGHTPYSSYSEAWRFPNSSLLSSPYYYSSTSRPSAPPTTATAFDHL

[10] = target: T3, Interleukin-8; experiment: Dose Response confirmation of uHTS small molecule hits for cystic fibrosis induced NFkb Inhibitors in a TNFa-induced IL8 counterscreen.; assay type: functional; settings: read-out: IC50_Mean
[11] = target: Melanocortin receptor 4 (Homo sapiens, UniProt P32245); assay type: functional, cell-based;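 note: Cell-based assay with luminescence read-out, confirmatory dose-response testing for agonist activity of biased ligands at MC4R; human U2OS cells with tagged receptor and beta-arrestin; potency of agonists that increase receptor coupling to beta-arrestin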
Sequence of Melanocortin receptor 4 (P32245 whole entry): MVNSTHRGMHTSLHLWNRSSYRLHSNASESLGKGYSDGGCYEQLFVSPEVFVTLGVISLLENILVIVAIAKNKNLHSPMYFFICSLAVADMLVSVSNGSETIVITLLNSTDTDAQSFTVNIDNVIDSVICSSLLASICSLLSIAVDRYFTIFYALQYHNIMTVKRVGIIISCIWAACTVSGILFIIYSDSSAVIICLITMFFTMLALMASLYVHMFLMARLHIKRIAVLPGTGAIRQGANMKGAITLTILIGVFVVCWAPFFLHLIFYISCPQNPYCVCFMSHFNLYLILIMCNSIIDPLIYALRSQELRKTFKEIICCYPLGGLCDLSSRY

[12] = target: T4, Polyadenylate-binding protein 1 (Homo sapiens, UniProt P11940); experiment: MLLE binding blockers, Cy5 peptide tracer – biochemical, fluorescence polarization, Cy5-PAM2 peptide, secondary, miRNA deadenylation inhibitor project, dose response (AID 602260); assay type: functional; settings: read-out: IC50_Mean
T4 sequence (P11940 whole entry): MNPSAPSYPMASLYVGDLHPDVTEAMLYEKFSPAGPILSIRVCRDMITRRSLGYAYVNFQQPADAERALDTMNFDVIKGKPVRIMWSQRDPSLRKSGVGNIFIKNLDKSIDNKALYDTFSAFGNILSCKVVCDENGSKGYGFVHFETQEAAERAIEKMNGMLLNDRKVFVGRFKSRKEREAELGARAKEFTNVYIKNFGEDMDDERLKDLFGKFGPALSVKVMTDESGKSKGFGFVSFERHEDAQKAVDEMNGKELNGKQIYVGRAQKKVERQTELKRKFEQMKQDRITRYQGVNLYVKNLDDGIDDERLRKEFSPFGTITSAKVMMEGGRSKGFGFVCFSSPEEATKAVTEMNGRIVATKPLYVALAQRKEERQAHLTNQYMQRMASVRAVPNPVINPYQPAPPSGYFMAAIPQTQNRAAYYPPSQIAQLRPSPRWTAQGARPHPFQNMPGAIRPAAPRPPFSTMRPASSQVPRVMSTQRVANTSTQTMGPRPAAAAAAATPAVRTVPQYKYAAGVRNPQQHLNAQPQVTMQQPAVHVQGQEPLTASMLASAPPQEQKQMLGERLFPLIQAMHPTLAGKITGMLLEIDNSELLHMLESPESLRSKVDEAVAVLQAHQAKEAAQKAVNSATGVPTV

[13] = target: T5, Neuropeptide Y receptor type 2 (Homo sapiens, UniProt P49146); experiment: Fluorescence-based cell-based high-throughput dose response assay for agonists of NPY-Y2. [Related pubchem assays: 1703 (Screening assay (CNGC inhibitors).), 1359 (Screening assay (NPY-Y2 potentiators or agonists).), 1304 (Screening assay (NPY-Y1 potentiators or agonists).), 1710 (Screening assay (NPY-Y2 agonists).), 1791 (Summary AID.)]; assay type: functional
T5 sequence (P49146 whole entry): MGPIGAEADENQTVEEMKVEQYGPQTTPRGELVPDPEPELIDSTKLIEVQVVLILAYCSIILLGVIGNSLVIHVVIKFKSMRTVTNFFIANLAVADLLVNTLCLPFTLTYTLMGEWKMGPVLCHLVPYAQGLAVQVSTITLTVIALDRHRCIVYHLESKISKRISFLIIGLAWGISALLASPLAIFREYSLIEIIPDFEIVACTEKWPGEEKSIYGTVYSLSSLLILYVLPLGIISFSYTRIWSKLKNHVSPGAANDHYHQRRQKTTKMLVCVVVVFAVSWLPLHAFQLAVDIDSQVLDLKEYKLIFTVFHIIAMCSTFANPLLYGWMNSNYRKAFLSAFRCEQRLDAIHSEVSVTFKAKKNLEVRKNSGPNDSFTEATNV

[14] = target: T6, Streptokinase A (Streptococcus pyogenes serotype M1, UniProt P10520); experiment: viability-normalized secreted streptokinase activity reduction – plasminogen activation absorbance, OD405, dose response (AID 1914); assay type: functional, Streptococcus pyogenes M1 GAS;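 note: secreted streptokinase activity via plasminogen activation per viability signal from cell pellet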
T6 sequence (P10520 whole entry): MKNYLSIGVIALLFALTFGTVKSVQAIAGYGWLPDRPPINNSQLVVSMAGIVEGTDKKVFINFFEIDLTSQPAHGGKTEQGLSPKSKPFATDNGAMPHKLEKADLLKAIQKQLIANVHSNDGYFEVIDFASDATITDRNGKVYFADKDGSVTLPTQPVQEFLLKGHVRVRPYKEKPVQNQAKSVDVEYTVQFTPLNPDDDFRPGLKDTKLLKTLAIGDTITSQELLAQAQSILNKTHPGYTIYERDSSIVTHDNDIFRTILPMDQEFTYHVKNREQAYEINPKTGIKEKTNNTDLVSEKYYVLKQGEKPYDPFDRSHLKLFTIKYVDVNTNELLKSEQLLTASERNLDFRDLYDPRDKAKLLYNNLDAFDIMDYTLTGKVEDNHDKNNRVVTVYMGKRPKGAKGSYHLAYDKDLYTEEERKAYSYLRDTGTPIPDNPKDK

[15] = target: T7, High affinity choline transporter 1 (Homo sapiens, UniProt Q9GZV3); experiment: human choline transporter blockers, potency – cell-based, 5-point CRC, membrane potential dye, dose response (AID 504840); assay type: functional
T7 sequence (Q9GZV3 whole entry): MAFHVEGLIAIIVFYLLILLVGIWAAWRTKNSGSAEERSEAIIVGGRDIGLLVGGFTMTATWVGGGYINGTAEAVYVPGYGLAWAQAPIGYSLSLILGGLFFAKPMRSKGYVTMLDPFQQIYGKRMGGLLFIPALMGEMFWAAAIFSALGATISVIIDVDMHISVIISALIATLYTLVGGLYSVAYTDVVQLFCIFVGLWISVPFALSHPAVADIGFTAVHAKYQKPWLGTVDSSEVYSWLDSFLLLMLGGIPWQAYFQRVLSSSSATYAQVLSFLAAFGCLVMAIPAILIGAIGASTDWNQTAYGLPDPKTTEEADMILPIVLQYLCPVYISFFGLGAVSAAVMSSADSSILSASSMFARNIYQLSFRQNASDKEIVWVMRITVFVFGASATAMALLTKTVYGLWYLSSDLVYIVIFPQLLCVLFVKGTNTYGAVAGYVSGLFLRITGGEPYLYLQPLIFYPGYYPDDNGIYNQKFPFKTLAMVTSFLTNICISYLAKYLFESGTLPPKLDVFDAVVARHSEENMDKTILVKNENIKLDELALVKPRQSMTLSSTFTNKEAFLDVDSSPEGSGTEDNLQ

[16] = fluconazole-exposed Candida albicans growth modulators – fluorescence, retest, confirmation (AID 2467); assay type: functional, cell-based
[17] = system: Streptococcus; experiment: GAS UMAA2166 growth inhibition – luminescence, BacTiterGlo, counter-screen for streptokinase expression inhibitor project, dose response (AID 1915); assay type: functional, organism-based;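 note: potency for reduction of bacterial viability or growth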
[18] = system: HEK293; experiment: Fluorescence-based counterscreen for potentiators or agonists of NPY-Y2: cell-based high-throughput dose response assay to identify inhibitors of cyclic nucleotide gated ion channel (CNGC) activity. In this assay, the parental HEK293 cell line transfected with a cyclic-nucleotide gated ion channel (CNGC)-based cAMP sensor is used to measure inhibition of isoproterenol-induced CNGC activity by test compound.; assay type: functional; settings: Homo sapiens;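 note: stimulus is 1 µM isoproterenol at EC100 plus PDE inhibitor Ro 20-1724 at 25 µM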
[19] = NIH-3T3 fibroblast cytotoxicity, dose response, cytotoxicity control, cell-based, fluorescence, Alamar Blue, secondary assay (AID 2327); assay type: functional;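 note: NIH-3T3 mouse fibroblasts cultured with fluconazole at 8 µg/mL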
[20] = microbe, parasite or virus in culture; assay type: functional; settings: Mycobacterium tuberculosis
[21] = system: Streptococcus sp. 'group A'; experiment: Streptococcus pyogenes SK(-)GAS viability under kanamycin – luminescence, BacTiterGlo, confirmation, counter-screen for streptokinase expression inhibitor project, dose response (AID 1900); assay type: functional, organism-based
[22] = target: T7, High affinity choline transporter 1; experiment: human choline transporter blockers, potency – cell-based, 10-point CRC, membrane potential dye, dose response (AID 588401); assay type: functional;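 note: membrane potential dye fluorescence of choline-evoked depolarization via CHT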
[23] = target: T8, Neuropeptide Y receptor type 1 (Homo sapiens, UniProt P25929); experiment: Fluorescence-based counterscreen for agonists of NPY-Y2: cell-based high-throughput dose response assay for agonists of NPY-Y1.; assay type: functional
T8 sequence (P25929 whole entry): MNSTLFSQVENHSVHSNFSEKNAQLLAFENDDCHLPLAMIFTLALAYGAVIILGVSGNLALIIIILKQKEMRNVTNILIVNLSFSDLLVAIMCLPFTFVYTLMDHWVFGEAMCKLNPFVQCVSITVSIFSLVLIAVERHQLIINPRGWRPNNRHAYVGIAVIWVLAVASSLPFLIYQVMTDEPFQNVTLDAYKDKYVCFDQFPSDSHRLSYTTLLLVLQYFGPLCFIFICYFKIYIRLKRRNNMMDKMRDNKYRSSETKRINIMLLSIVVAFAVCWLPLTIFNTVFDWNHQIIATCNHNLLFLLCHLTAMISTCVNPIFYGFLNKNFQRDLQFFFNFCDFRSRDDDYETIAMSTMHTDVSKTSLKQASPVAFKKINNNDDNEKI

[24] = target: T4, Polyadenylate-binding protein 1; experiment: MLLE domain peptide-binding blockers, IC50 – biochemical, fluorescence polarization, FITC-PAM2 peptide, dose response (AID 602259); assay type: functional; settings: read-out: IC50_Mean
[25] = system: BJ; experiment: BJ-TERT fibroblast viability loss – cell-based, RAS-independent, luminescence, dose response (AID 1933); assay type: functional; settings: Homo sapiens
[26] = target: Luciferin 4-monooxygenase (Photinus pyralis, UniProt P08659); experiment: inhibition of purified Photinus pyralis luciferase – biochemical, luminescence, dose response (AID 1891)
Sequence of Luciferin 4-monooxygenase (P08659 whole entry): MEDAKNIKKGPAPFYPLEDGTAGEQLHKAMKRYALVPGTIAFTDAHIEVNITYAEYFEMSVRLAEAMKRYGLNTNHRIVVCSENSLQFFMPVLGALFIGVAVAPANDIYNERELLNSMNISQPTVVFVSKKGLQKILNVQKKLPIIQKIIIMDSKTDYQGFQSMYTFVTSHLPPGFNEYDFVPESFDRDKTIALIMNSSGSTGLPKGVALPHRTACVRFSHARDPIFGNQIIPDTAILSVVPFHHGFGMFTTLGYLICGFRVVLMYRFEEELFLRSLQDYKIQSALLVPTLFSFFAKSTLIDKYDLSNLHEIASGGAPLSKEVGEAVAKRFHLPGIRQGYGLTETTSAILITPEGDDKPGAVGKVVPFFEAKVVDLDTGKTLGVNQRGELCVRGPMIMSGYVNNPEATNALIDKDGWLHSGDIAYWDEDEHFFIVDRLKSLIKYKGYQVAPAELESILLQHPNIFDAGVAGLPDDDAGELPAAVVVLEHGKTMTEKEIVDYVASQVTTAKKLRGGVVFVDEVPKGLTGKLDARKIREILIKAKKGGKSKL

[27] = system: BJ; experiment: BJ-TERT-LT-ST fibroblast viability loss – cell-based, RAS-independent, luminescence, dose response (AID 1935); assay type: functional; settings: Homo sapiens;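 note: BJ fibroblasts immortalized with TERT plus LT and ST oncogenes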
[28] = system: BJ; experiment: cells; assay type: functional, cell-based; settings: Homo sapiens
[29] = target: HSP90 (Plasmodium falciparum 3D7, UniProt Q8IL32); assay type: functional, organism-based
Sequence of HSP90 (Q8IL32 whole entry): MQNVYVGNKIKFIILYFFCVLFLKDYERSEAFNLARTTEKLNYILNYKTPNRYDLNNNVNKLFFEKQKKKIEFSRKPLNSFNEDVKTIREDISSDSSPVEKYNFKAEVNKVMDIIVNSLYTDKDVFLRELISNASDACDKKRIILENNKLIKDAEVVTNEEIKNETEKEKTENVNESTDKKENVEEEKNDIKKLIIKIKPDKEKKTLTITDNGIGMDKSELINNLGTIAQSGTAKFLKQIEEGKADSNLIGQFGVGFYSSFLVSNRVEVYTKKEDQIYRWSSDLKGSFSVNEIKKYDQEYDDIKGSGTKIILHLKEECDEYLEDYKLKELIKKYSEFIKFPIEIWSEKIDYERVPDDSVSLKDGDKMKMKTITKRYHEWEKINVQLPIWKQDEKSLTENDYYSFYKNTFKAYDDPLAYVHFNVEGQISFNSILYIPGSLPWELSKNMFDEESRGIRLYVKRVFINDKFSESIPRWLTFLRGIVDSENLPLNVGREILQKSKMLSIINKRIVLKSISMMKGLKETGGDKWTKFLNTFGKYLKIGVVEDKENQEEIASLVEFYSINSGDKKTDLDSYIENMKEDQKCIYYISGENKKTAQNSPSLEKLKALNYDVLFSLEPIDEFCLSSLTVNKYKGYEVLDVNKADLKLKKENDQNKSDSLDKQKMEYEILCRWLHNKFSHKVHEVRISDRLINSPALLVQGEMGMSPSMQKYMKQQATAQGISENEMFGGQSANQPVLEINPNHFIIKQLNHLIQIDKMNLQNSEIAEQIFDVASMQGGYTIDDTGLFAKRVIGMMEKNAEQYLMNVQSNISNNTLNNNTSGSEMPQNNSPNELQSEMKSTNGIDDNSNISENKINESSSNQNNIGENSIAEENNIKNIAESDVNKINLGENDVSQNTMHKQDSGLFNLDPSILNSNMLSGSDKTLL

[30] = Luminescence Cell-Based Dose Confirmation HTS to Identify Inhibitors of Platelet Dense Granule Release. [Related pubchem assays: 1663 (Primary HTS), 1678 (Summary of Project)]; assay type: functional
[31] = DRD fibroblast viability loss – cell-based, non-viral oncogenic, luminescence, dose response (AID 1934); assay type: functional; settings: Homo sapiens
[32] = target: Heat shock protein HSP 90-alpha (Homo sapiens, UniProt P07900); assay type: functional, organism-based

O=C1Nc2ccc3sc4ccccc4c3c2C1=O
CC50 [1]: > 50 µM (active)
IC50 [2]: 8.19 µM (active)
IC50 [3]: 4.35 µM (active)
IC50 [4]: 15.2 µM (active)
IC50 [5]: > 66.6 µM (inactive)
IC50 [6]: 2.49 µM (active)
IC50 [7]: 3.25 µM (active)

CCOC(=O)Nc1ccc2c(c1)N(C(=O)CCN(CC)CC)c1ccccc1[S+]2[O-] (configuration not stated)
IC50 [8]: 1.12 µM (active)
AC50 [9]: 7.06 µM (active)
IC50 [10]: 1.01 µM (active)

COc1ccc(-c2cnc3c(NC(C)=O)cc(-c4cc(F)ccc4OC)cn23)cc1OC
EC50 [11]: > 89.2 µM (inactive)

N#C/C(=N/Nc1ccc(OC(F)(F)F)cc1)C(N)=S
IC50 [12]: > 66 µM (inactive)
EC50 [13]: > 35.4 µM (not active)
EC50 [14]: > 150 µM (not active)
IC50 [15]: 7.16 µM (active)
EC50 [16]: 1.67 µM (active)
EC50 [17]: > 150 µM (not active)
EC50 [18]: > 35.4 µM (not active)
EC50 [19]: 15 µM (active)
CC50 [20]: 8.05 µM (active)
EC50 [21]: 44.9 µM (active)
IC50 [22]: 0.631 µM (active)
EC50 [23]: 33.3 µM (not active)
IC50 [24]: > 66 µM (inactive)

C(=C\c1nc2ccccc2[nH]1)/c1ccccc1
EC50 [25]: 6.89 µM (active)
EC50 [26]: 0.949 µM (active)
EC50 [27]: > 150 µM (inconclusive)
EC50 [28]: 8.19 µM (active)
AC50 [29]: 106 µM (active)
EC50 [30]: 2.44 µM (active)
EC50 [31]: 6.84 µM (active)
AC50 [32]: 44 µM (active)
